US20250290928A1, “METHOD, KIT AND DEVICE FOR DETECTING EXTRACELLULAR VESICLES” (priority 2022, published 2025)
Several values for one entry are separate records, joined by “and”; a condition that tells them apart may be missing. Equal values may be shown once. *: point of attachment. 5FAM = O=C1OC2(c3ccc(O)cc3Oc3cc(O)ccc32)c2ccc(C(=O)*)cc21; TQ2 = quencher

Legend:
[1] = system: MMP14 in the HT1080 culture supernatants and the culture medium samples; test: Digital detection of MMP14 active component in HT1080 culture supernatants, culture media and recovered liquids in wells; type: biochemical, Human; settings: for original concentration in the culture supernatant / amount of the extracellular vesicles in the fraction (0.7 mL): Example 59, qEV; for original concentration in the culture supernatant: recovered from 3 mL of the culture supernatant; for amount of the extracellular vesicles in the fraction (0.7 mL): 4 h
Procedure: (§1) In addition, for detection of MMP14 activity, 1 mM Custom #1 was diluted with the buffer (4) to prepare a MMP14 detection solution containing 5 μM Custom #1 and 2 μM Alexa Fluor 647.

[2] = target: T1, MMP14 in the HT1080 culture supernatants and the culture medium samples (Homo sapiens, UniProt P50281); test: as above; type: biochemical; settings: for MMP14 active component concentration: HT1080 culture Present
T1 construct: host or cells: HT1080 culture supernatant
Procedure: as §1

[3] = Experiment condition (I): FBS, HT1080 culture Present, only centrifugation, Reaction 4 hr
[4] = Experiment condition (I): FBS, HT1080 culture Present, only centrifugation, Reaction 24 hr
[5] = Experiment condition (II): FBS, HT1080 culture Present, centrifugation + filtration, Reaction 4 hr
[6] = Experiment condition (II): FBS, HT1080 culture Present, centrifugation + filtration, Reaction 24 hr
[7] = Experiment condition (III): FBS culture medium, HT1080 culture Absent, Reaction 4 hr
[8] = Experiment condition (III): FBS culture medium, HT1080 culture Absent, Reaction 24 hr
[9] = Experiment condition (IV): Exo-FBS, HT1080 culture Present, only centrifugation, Reaction 4 hr
[10] = Experiment condition (IV): Exo-FBS, HT1080 culture Present, only centrifugation, Reaction 24 hr
[11] = Experiment condition (IX): MEM culture medium, HT1080 culture Absent, Reaction 4 hr
[12] = Experiment condition (IX): MEM culture medium, HT1080 culture Absent, Reaction 24 hr
[13] = Experiment condition (V): Exo-FBS, HT1080 culture Present, centrifugation + filtration, Reaction 4 hr
[14] = Experiment condition (V): Exo-FBS, HT1080 culture Present, centrifugation + filtration, Reaction 24 hr
[15] = Experiment condition (VI): Exo-FBS culture medium, HT1080 culture Absent, Reaction 4 hr
[16] = Experiment condition (VI): Exo-FBS culture medium, HT1080 culture Absent, Reaction 24 hr
[17] = Experiment condition (VII): MEM, HT1080 culture Present, only centrifugation, Reaction 4 hr
[18] = Experiment condition (VII): MEM, HT1080 culture Present, only centrifugation, Reaction 24 hr
[19] = Experiment condition (VIII): MEM, HT1080 culture Present, centrifugation + filtration, Reaction 4 hr
[20] = Experiment condition (VIII): MEM, HT1080 culture Present, centrifugation + filtration, Reaction 24 hr
[21] = HT1080 culture supernatant recovered with exoEasy, Exo-FBS, Reaction 4 hr
[22] = HT1080 culture supernatant recovered with exoEasy, Exo-FBS, Reaction 24 hr
[23] = HT1080 culture supernatant recovered with exoEasy, MEM, Reaction 4 hr
[24] = HT1080 culture supernatant recovered with exoEasy, MEM, Reaction 24 hr
[25] = qEV recovered liquid, Exo-FBS, Fraction # 8, 4 hours of reaction
[26] = qEV recovered liquid, Exo-FBS, Fraction # 9, 4 hours of reaction
[27] = qEV recovered liquid, Exo-FBS, Fraction # 10, 4 hours of reaction
[28] = qEV recovered liquid, Exo-FBS, Fraction # 11, 4 hours of reaction
[29] = qEV recovered liquid, Exo-FBS, Fraction # 12, 4 hours of reaction
[30] = qEV recovered liquid, Exo-FBS, Fraction # 13, 4 hours of reaction
[31] = qEV recovered liquid, Exo-FBS, Fraction # 14, 4 hours of reaction
[32] = qEV recovered liquid, Exo-FBS, Fraction # 15, 4 hours of reaction
[33] = qEV recovered liquid, MEM, Fraction # 7, 4 hours of reaction
[34] = qEV recovered liquid, MEM, Fraction # 8, 4 hours of reaction
[35] = qEV recovered liquid, MEM, Fraction # 9, 4 hours of reaction
[36] = qEV recovered liquid, MEM, Fraction # 10, 4 hours of reaction
[37] = qEV recovered liquid, MEM, Fraction # 11, 4 hours of reaction
[38] = qEV recovered liquid, MEM, Fraction # 12, 4 hours of reaction
[39] = qEV recovered liquid, MEM, Fraction # 13, 4 hours of reaction
[40] = qEV recovered liquid, MEM, Fraction # 14, 4 hours of reaction

## [5-FAM]GRIGFLRTAK(TQ2)[OH] (5FAM-GRIGFLRTAK(TQ2)-OH) [Custom #1]
[1]; Exo-FBS
  original concentration in the culture supernatant: 9.3259e+09 mL⁻¹
[1]; Fraction #7 of the MEM
  amount of the extracellular vesicles in the fraction (0.7 mL): 1.114×10^10
[1]; Fraction #8 of the Exo-FBS
  amount of the extracellular vesicles in the fraction (0.7 mL): 0.8283×10^10
[1]; Fraction #8 of the MEM
  amount of the extracellular vesicles in the fraction (0.7 mL): 0.5245×10^10
[1]; Fraction #9 of the Exo-FBS
  amount of the extracellular vesicles in the fraction (0.7 mL): 1.969×10^10
[1]; MEM
  original concentration in the culture supernatant: 5.4612e+09 mL⁻¹
[1]; [3]
  Expected value λ: 0.9029
  Number of positives: 16,696
  Positive ratio: 0.5946
[1]; [4]
  Expected value λ: 0.9382
  Number of positives: 17,091
  Positive ratio: 0.6087
[1]; [5]
  Expected value λ: 0.7605
  Number of positives: 14,954
  Positive ratio: 0.5325
[1]; [6]
  Expected value λ: 0.7723 and 0.7722
  Number of positives: 15,051
  Positive ratio: 0.538
[1]; [7]
  Expected value λ: 0.6588
  Number of positives: 13,549
  Positive ratio: 0.4825
[1]; [8]
  Expected value λ: 0.686
  Number of positives: 13,900
  Positive ratio: 0.4964
[1]; [9]
  Expected value λ: 0.5033
  Number of positives: 11,105
  Positive ratio: 0.3955
[1]; [10]
  Expected value λ: 0.4954
  Number of positives: 10,939
  Positive ratio: 0.3906
[1]; [11]
  Expected value λ: 0.00011
  Number of positives: 3
  Positive ratio: 0.00011
[1]; [12]
  Expected value λ: 0.00014
  Number of positives: 4
  Positive ratio: 0.00014
[1]; [13]
  Expected value λ: 0.5687
  Number of positives: 12,180
  Positive ratio: 0.4338
[1]; [14]
  Expected value λ: 0.5771
  Number of positives: 12,313
  Positive ratio: 0.4385
[1]; [15]
  Expected value λ: 0.6217
  Number of positives: 12,998
  Positive ratio: 0.4629
[1]; [16]
  Expected value λ: 0.6019
  Number of positives: 12,698
  Positive ratio: 0.4522
[1]; [17]
  Expected value λ: 0.00335
  Number of positives: 94
  Positive ratio: 0.00335
[1]; [18]
  Expected value λ: 0.01005
  Number of positives: 280
  Positive ratio: 0.01005
[1]; [19]
  Expected value λ: 0.00514
  Number of positives: 144
  Positive ratio: 0.00513
[1]; [20]
  Expected value λ: 0.01107
  Number of positives: 309
  Positive ratio: 0.01107
[1]; [21]
  Expected value λ: 0.3476
  Number of positives: 8,245
  Positive ratio: 0.2936
[1]; [22]
  Expected value λ: 0.5132
  Number of positives: 11,272
  Positive ratio: 0.4014
[1]; [23]
  Expected value λ: 0.00471
  Number of positives: 132
  Positive ratio: 0.0047
[1]; [24]
  Expected value λ: 0.01107
  Number of positives: 308
  Positive ratio: 0.01101
[1]; [25]
  Expected value λ: 0.2958
  Number of positives: 7,164
  Positive ratio: 0.2561
[1]; [26]
  Expected value λ: 0.7034
  Number of positives: 14,130
  Positive ratio: 0.5051
[1]; [27]
  Expected value λ: 1.421
  Number of positives: 21,264
  Positive ratio: 0.7586
[1]; [28]
  Expected value λ: 1.453
  Number of positives: 21,512
  Positive ratio: 0.7661
[1]; [29]
  Expected value λ: 1.465
  Number of positives: 21,591
  Positive ratio: 0.7689
[1]; [30]
  Expected value λ: 1.3102
  Number of positives: 20,505
  Positive ratio: 0.7302
[1]; [31]
  Expected value λ: 1.962
  Number of positives: 24,077
  Positive ratio: 0.8594
[1]; [32]
  Expected value λ: 3.133
  Number of positives: 26,856
  Positive ratio: 0.9564
[1]; [33]
  Expected value λ: 0.3978
  Number of positives: 9,216
  Positive ratio: 0.3282
[1]; [34]
  Expected value λ: 0.1873
  Number of positives: 4,791
  Positive ratio: 0.1708
[1]; [35]
  Expected value λ: 0.1593
  Number of positives: 4,129
  Positive ratio: 0.1472
[1]; [36]
  Expected value λ: 0.0176
  Number of positives: 490
  Positive ratio: 0.01745
[1]; [37]
  Expected value λ: 0.01104
  Number of positives: 308
  Positive ratio: 0.01098
[1]; [38]
  Expected value λ: 0.01161
  Number of positives: 324
  Positive ratio: 0.01154
[1]; [39]
  Expected value λ: 0.02444
  Number of positives: 678
  Positive ratio: 0.02415
[1]; [40]
  Expected value λ: 0.00075
  Number of positives: 21
  Positive ratio: 0.00075
[2]; Experiment condition (I): FBS, only centrifugation, Reaction 4 hr
  MMP14 active component concentration: 3.611e+11 mL⁻¹
[2]; Experiment condition (I): FBS, only centrifugation, Reaction 24 hr
  MMP14 active component concentration: 3.753e+11 mL⁻¹
[2]; Experiment condition (II): FBS, centrifugation + filtration, Reaction 4 hr
  MMP14 active component concentration: 3.042e+11 mL⁻¹
[2]; Experiment condition (II): FBS, centrifugation + filtration, Reaction 24 hr
  MMP14 active component concentration: 3.0889e+11 mL⁻¹
[2]; Experiment condition (IV): Exo-FBS, only centrifugation, Reaction 4 hr
  MMP14 active component concentration: 2.013e+11 mL⁻¹
[2]; Experiment condition (IV): Exo-FBS, only centrifugation, Reaction 24 hr
  MMP14 active component concentration: 1.981e+11 mL⁻¹
[2]; Experiment condition (V): Exo-FBS, centrifugation + filtration, Reaction 4 hr
  MMP14 active component concentration: 2.275e+11 mL⁻¹
[2]; Experiment condition (V): Exo-FBS, centrifugation + filtration, Reaction 24 hr
  MMP14 active component concentration: 2.309e+11 mL⁻¹
[2]; Experiment condition (VII): MEM, only centrifugation, Reaction 4 hr
  MMP14 active component concentration: 1.341e+09 mL⁻¹
[2]; Experiment condition (VII): MEM, only centrifugation, Reaction 24 hr
  MMP14 active component concentration: 4.02e+09 mL⁻¹
[2]; Experiment condition (VIII): MEM, centrifugation + filtration, Reaction 4 hr
  MMP14 active component concentration: 2.057e+09 mL⁻¹
[2]; Experiment condition (VIII): MEM, centrifugation + filtration, Reaction 24 hr
  MMP14 active component concentration: 4.426e+09 mL⁻¹
[2]; [21]
  MMP14 extracellular vesicle concentration: 1.39e+11 mL⁻¹
[2]; [22]
  MMP14 extracellular vesicle concentration: 2.053e+11 mL⁻¹
[2]; [23]
  MMP14 extracellular vesicle concentration: 1.885e+09 mL⁻¹
[2]; [24]
  MMP14 extracellular vesicle concentration: 4.428e+09 mL⁻¹
[2]; [25]
  MMP14 extracellular vesicle concentration: 1.1833e+10 mL⁻¹
[2]; [26]
  MMP14 extracellular vesicle concentration: 2.8135e+10 mL⁻¹
[2]; [27]
  MMP14 extracellular vesicle concentration: 5.6859e+10 mL⁻¹
[2]; [28]
  MMP14 extracellular vesicle concentration: 5.8114e+10 mL⁻¹
[2]; [29]
  MMP14 extracellular vesicle concentration: 5.8598e+10 mL⁻¹
[2]; [30]
  MMP14 extracellular vesicle concentration: 5.2408e+10 mL⁻¹
[2]; [31]
  MMP14 extracellular vesicle concentration: 7.8483e+10 mL⁻¹
[2]; [32]
  MMP14 extracellular vesicle concentration: 1.2532e+11 mL⁻¹
[2]; [33]
  MMP14 extracellular vesicle concentration: 1.5912e+10 mL⁻¹
[2]; [34]
  MMP14 extracellular vesicle concentration: 7.493e+09 mL⁻¹
[2]; [35]
  MMP14 extracellular vesicle concentration: 6.37e+09 mL⁻¹
[2]; [36]
  MMP14 extracellular vesicle concentration: 7.04e+08 mL⁻¹
[2]; [37]
  MMP14 extracellular vesicle concentration: 4.42e+08 mL⁻¹
[2]; [38]
  MMP14 extracellular vesicle concentration: 4.64e+08 mL⁻¹
[2]; [39]
  MMP14 extracellular vesicle concentration: 9.78e+08 mL⁻¹
[2]; [40]
  MMP14 extracellular vesicle concentration: 3e+07 mL⁻¹
